{
  "source": "paper PMC12005739",
  "about": "“Disruption of the eEF1A1/ARID3A/PKC‐δ Complex by Neferine Inhibits Macrophage Glycolytic Reprogramming in Atherosclerosis” (Advanced Science, 2025)",
  "key": {"[1]": {"target": "T1, eEF1A1 (RAW264.7 macrophages) (Mus musculus, UniProt P10126)", "T1 construct": "endogenous protein in RAW264.7 cells or lysate, about 50 kDa band, identified by LC-MS/MS and Western blot", "T1 sequence (P10126 2-462)": "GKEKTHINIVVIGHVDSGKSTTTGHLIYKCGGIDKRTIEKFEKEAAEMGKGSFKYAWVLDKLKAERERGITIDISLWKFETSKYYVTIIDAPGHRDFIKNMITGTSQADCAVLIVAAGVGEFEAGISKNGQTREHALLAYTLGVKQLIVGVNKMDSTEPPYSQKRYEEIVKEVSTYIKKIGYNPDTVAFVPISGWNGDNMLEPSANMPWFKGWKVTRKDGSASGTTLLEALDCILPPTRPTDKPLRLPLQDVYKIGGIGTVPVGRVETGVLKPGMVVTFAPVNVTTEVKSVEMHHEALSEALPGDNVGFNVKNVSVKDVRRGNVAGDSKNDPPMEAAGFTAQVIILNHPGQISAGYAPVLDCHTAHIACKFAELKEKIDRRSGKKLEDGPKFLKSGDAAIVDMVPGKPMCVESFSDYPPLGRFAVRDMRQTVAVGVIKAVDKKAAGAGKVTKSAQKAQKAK", "experiment": "CETSA and DARTS with Western blot; competition of probe pull-down", "assay_type": "biochemical", "conditions": "RAW264.7 lysate or cells; Nef 200 µM (CETSA methods) or 10 µM (figure legend); DARTS 2.5-10 µM with pronase"}, "[2]": {"target": "T2, eEF1A1 (recombinant human eEF1A1) (Homo sapiens, UniProt P68104)", "T2 sequence (P68104 1-462)": "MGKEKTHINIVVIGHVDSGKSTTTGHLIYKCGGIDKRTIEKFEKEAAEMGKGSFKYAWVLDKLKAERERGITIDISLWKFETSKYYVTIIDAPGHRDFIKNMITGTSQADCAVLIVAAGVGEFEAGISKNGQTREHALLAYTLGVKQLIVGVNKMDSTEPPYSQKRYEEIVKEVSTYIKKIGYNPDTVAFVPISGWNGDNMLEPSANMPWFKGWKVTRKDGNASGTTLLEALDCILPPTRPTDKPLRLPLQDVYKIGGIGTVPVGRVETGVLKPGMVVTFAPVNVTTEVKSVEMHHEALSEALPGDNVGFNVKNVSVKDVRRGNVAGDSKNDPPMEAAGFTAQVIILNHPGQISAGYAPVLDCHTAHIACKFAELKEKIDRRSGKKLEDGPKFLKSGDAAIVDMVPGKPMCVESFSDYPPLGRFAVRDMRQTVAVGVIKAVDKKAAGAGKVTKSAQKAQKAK", "experiment": "isothermal titration calorimetry (MicroCal PEAQ-ITC)", "assay_type": "binding", "source_text": "isothermal titration calorimetry (MicroCal PEAQ-ITC) on eEF1A1 (recombinant human eEF1A1) | ITC assay confirmed the affinity of Nef to eEF1A1 with the affinity constant of […]"}},
  "data": [
    {"compound": "COc1ccc(C[C@@H]2c3cc(Oc4cc(C[C@@H]5c6cc(OC)c(OC)cc6CCN5C)ccc4O)c(OC)cc3CCN2C)cc1", "note": "[neferine]", "values": [
      {"measurement": "CETSA and DARTS with Western blot; competition of probe pull-down", "setting": "[1]", "value": "Nef administration protected the eEF1A1 protein from temperature‐dependent degradation in cell lysis"},
      {"measurement": "Kd", "setting": "[2]", "value": 4.83, "unit": "µM"}
    ]}
  ]
}
